The text below walks through data of patent publication EP4635969A1, “NOVEL GLUCOCORTICOID, METHOD FOR PREPARING SAME, AND USE THEREOF” (Tianjin Pharmaceutical Biotechnology Co., Ltd., priority 2022, dated 2024).

By pEC50 is commonly meant −log10 of the EC50, conventionally taken in molar units.

In data set [1] the test system is intraocular pressure of guinea pigs. Kind of data set: Adverse reactions of continuous ocular administration: intraocular pressure. It counts as in vivo. The protocol:
Pharmacological Example 9: Experiment on Adverse Reactions of Continuous Ocular Administration in Guinea Pigs
Test samples: Compounds 17 and 23 were prepared as 5 mg/5 mL ophthalmic suspensions with reference to the formulation of Fluorometholone Eye Drops, and stored at room temperature protected from light until use.
Positive control drug: Fluorometholone Eye Drops (specification: 5 mL/5 mg; Santen Pharmaceutical (CHINA) Co., Ltd.; Lot No.: 1FM6545), Loteprednol Etabonate Eye Drops (specification 0.5% (5 mg/mL); Shandong Bausch & Lomb Freda Pharmaceutical Co., Ltd; Lot No. 386521), stored at room temperature protected from light until use.
Animals: 50 guinea pigs, conventional grade, with an equal number of males and females, weighing 300-350 g..
Animal grouping: After 5 days of adaptive feeding, the guinea pigs were randomly divided into 5 groups based on body weight. Group 1 was the blank control group, and 50 µL of normal saline was dropped into the eyes (bilateral) of the guinea pigs. Groups 2 to 5 were the fluorometholone group, loteprednol group, compound 17 group, and compound 23 group, respectively, and the corresponding drugs were dropped into the eyes (bilateral) of the guinea pigs. Table 19. Animal grouping and drug administration dosages for the experiment on adverse reactions of continuous ocular administration in guinea pigs
Intraocular pressure measurement time: The intraocular pressure of animals in each group was measured before administration and on days 7, 14, 21, and 28 post-administration.

The target in data set [2] is T1, progesterone receptor (PR) (Homo sapiens, UniProt P06401).
T1 sequence (P06401 678-933): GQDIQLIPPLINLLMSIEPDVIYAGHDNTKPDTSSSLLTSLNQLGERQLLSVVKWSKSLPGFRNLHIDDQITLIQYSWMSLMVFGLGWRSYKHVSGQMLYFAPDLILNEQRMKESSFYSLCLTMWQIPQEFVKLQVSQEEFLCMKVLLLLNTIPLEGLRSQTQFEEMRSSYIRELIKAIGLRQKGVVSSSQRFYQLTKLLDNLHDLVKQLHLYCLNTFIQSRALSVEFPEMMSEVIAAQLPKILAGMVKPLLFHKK
The data set is described as follows: Assay for agonist activity on progesterone receptor (luciferase reporter, HEK293 cells transfected with pBIND-PR plasmid). It counts as cell-based. Particulars: for EC50: EC50 of agonist activity, HEK293 reporter cells, top concentration 50 µM, read-out: Nuclear receptor enzyme activity (nM) PR; for Target selectivity PR/GR: ratio of EC50 values. The protocol:
(§1) Pharmacological Example 2: Assay for Agonist Activity on Mineralocorticoid Receptor (MR) and Progesterone Receptor (PR)
(§2) Test compound stock solutions: The test compounds (compounds 4, 5, 7, 8, 9, 11, 13, 16, 17, 18, 22, 23, 24, 34, 35, 36, 38, 41, 45, 47, 53, 55, and 59) were accurately weighed, dissolved in DMSO to prepare stock solutions at a concentration of 20 mM, and stored at -20 °C.
(§3) The test compounds were subjected to a 4-fold serial dilution starting from an initial concentration of 50 µ M, generating a 12-point concentration gradient with duplicate wells for each concentration. The blank control consisted of 0.1% DMSO.
(§4) The HEK293 stable cell lines […] transfected with mineralocorticoid receptor (MR) and progesterone receptor (PR) (ICE Bioscience, Lot No. TYP-20220819, TPJ-20220812) were cultured in Dulbecco's Modified Eagle Medium (DMEM) supplemented with 10% fetal bovine serum (FBS) and 200 µ g/ml Hygromycin B in a cell incubator containing 5% CO2 at 37 °C. The spent medium was aspirated, and the cells were washed once with phosphate-buffered saline (PBS). Then, 1 mL of TrypLE™ Express solution was added, and the cells were incubated at 37 °C for approximately 2 min. When the cells detached from the bottom of the cell culture dish, approximately 5 mL of pre-warmed complete medium at 37 °C was added. The cell suspension was gently pipetted with a pipette to dissociate clumped cells. The cell suspension was transferred to a sterile centrifuge tube and centrifuged at 1000 rpm for 5 min to pellet the cells for experiments or subculture..
(§5) HEK293 cells were digested and seeded into 6-cm culture dishes. The pBIND-MR and pBIND-PR plasmids were separately transfected into the HEK293 cells using a transfection reagent, resulting in HEK293 cells successfully transfected with the pBIND-MR and pBIND-PR plasmids, respectively. The cells were resuspended in phenol red-free DMEM medium containing 5% charcoal-stripped serum, counted, and then seeded into 96-well plates. The test compounds were added, and the plates were then incubated in an incubator. The luminescence signal values were measured using a multimode microplate reader following the instructions of the luciferase assay kit. The EC50 values of each test compound were calculated using the nonlinear fitting formula with GraphPad Prism 8.0 software.

Data set [3] concerns the target T2, glucocorticoid receptor (GR) (Homo sapiens, UniProt P04150).
T2 sequence (P04150 521-777): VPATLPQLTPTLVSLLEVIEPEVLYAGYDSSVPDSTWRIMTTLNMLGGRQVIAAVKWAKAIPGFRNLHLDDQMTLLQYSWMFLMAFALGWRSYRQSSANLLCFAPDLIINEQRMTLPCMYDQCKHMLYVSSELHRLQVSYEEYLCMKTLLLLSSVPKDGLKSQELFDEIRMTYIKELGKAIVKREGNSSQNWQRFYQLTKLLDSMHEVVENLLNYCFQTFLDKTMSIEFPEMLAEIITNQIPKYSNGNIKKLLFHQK
The data set is described as follows: Assay for agonist activity on glucocorticoid receptor (luciferase reporter, HEK293 cells transfected with pBIND-GR plasmid). It counts as cell-based. Particulars: for EC50: EC50 of agonist activity, HEK293 reporter cells, read-out: Nuclear receptor enzyme activity (nM) GR; for pEC50: HEK293 cells transfected with pBIND-GR, luciferase signal, read-out: GR agonist EC50. A digest of the protocol: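 HEK293 cells transfected with pBIND-GR, seeded in phenol red-free DMEM with 5% charcoal-stripped serum, then exposed to compounds in a 10-point, 4-fold dilution series from 10 µM, in duplicate. Luciferase luminescence read after incubation; EC50 from nonlinear fit. Vehicle blank: 0.1% DMSO.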
(A reporter such as luciferase makes a cellular process visible.)

The target in data set [4] is T3, mineralocorticoid receptor (MR) (Homo sapiens, UniProt P08235).
T3 sequence (P08235 726-984): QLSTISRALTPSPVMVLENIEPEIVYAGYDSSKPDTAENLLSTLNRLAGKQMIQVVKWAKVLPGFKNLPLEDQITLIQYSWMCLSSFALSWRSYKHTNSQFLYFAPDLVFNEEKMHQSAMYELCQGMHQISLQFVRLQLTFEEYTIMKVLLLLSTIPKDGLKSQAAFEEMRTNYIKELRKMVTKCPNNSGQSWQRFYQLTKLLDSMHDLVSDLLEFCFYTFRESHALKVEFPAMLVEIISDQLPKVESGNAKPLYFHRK
The data set is described as follows: Assay for agonist activity on mineralocorticoid receptor (luciferase reporter, HEK293 cells transfected with pBIND-MR plasmid). The data set is classed as cell-based. Particulars: for EC50: EC50 of agonist activity, HEK293 reporter cells, top concentration 50 µM, read-out: Nuclear receptor enzyme activity (nM) MR; for Target selectivity MR/GR: ratio of EC50 values. The protocol: as §1, §2, §3, §4, §5

pEC50: −log10 of the molar value. Read-outs that look alike come from different tables or passages of the source.

Turning to `CCOC(=O)O[C@]1(C(=O)OCCl)CC[C@H]2[C@@H]3CCC4=CC(=O)C=C[C@]4(C)[C@H]3[C@@H](O)C[C@@]21C` [Loteprednol, Loteprednol Etabonate, reference compound], the “intraocular pressure after continuous ocular administration” value in data set [1] is “intraocular pressure elevation was detected on day 7”. Moreover, the “Intraocular pressure of guinea pigs (mmHg) D0” value in data set [1] (D0, before administration, 50 µL/eye (compounds and fluorometholone 1 mg/mL, loteprednol 5 mg/mL)) amounted to 14.0 ± 1.8 mmHg. Also, the “Intraocular pressure of guinea pigs (mmHg) D7” value in data set [1] (D7, 50 µL/eye (compounds and fluorometholone 1 mg/mL, loteprednol 5 mg/mL)) is 19.0 ± 3.5 mmHg. For the same compound, the “Intraocular pressure of guinea pigs (mmHg) D14” value in data set [1] (D14, 50 µL/eye (compounds and fluorometholone 1 mg/mL, loteprednol 5 mg/mL)) was 18.5 ± 1.5 mmHg. For the same compound, the “Intraocular pressure of guinea pigs (mmHg) D21” value in data set [1] (D21, 50 µL/eye (compounds and fluorometholone 1 mg/mL, loteprednol 5 mg/mL)) turned out to be 18.5 ± 0.7 mmHg. In addition, in data set [1] (D28, 50 µL/eye (compounds and fluorometholone 1 mg/mL, loteprednol 5 mg/mL)), the “Intraocular pressure of guinea pigs (mmHg) D28” value is recorded as 19.5 ± 0.6 mmHg.
Regarding `C[C@]12C=CC(=O)C=C1[C@@H](F)C[C@H]1[C@@H]3C[C@H]4OC(c5ccc(NC(=O)C6COC(=O)C6)cc5)O[C@@]4(C(=O)SCF)[C@@]3(C)C[C@H](O)[C@@]12F` (stereo partly drawn) [Compound 5, S-(Fluoromethyl) (2S,6aS,6bR,7S,8aS,8bS,11aR,12aS,12bS)-2,6b-difluoro-7-hydroxy-6a,8a-dimethyl-4-oxo-10-(4-(5-oxotetrahydrofuran-3-carboxamido)phenyl)-1,2,4,6a,6b,7,8,8a,11a,12,12a,12b-dodecahydro-8b H-naphtho[2',1':4,5]indeno[1,2-d][1,3]dioxole-8b-carbothioate], in data set [2], the EC50 was over 50000 nM and the “Target selectivity PR/GR” value is listed as over 9560. Further, in data set [3], the EC50 is 5.23 nM and the negative logarithm of the EC50 (pEC50) was 8.28. Moreover, in data set [4], the EC50 is over 50000 nM and the “Target selectivity MR/GR” value is recorded as over 9560.
With `C[C@]12C=CC(=O)C=C1[C@@H](F)C[C@H]1[C@@H]3C[C@H]4OC(c5ccc(C[S+]([O-])C6CCOC6=O)cc5)O[C@@]4(C(=O)CO)[C@@]3(C)C[C@H](O)[C@@]12F` (stereo partly drawn) [Compound 55, (2S,6aS,6bR,7S,8aS,8bS,11aR,12aS,12bS)-2,6b-Difluoro-7-hydroxy-8b-(2-hydroxyacetyl)-6a,8a-dimethyl-10-(4-(((2-oxotetrahydrofuran-3-yl)sulfinyl)methyl)phenyl)-1,2,6a,6b,7,8,8a,8b,11a,12,1 2a,12b-dodecahydro-4H-naphtho[2',1':4,5]indeno[1,2-d][1,3]dioxol-4-one], in data set [2], the EC50 is over 50000 nM and the “Target selectivity PR/GR” value is on record as > 3.8×10^4. In addition, in data set [3], the EC50 came out at 1.33 nM and the pEC50 was 8.88. Also, in data set [4], the EC50 is over 50000 nM and the “Target selectivity MR/GR” value is reported as > 3.8×10^4.
With `C[C@]12C=CC(=O)C=C1CC[C@H]1[C@@H]3C[C@H]4OC(c5cnc(CSC6CCOC6=O)nc5)O[C@@]4(C(=O)CO)[C@@]3(C)C[C@H](O)[C@@]12F` (stereo partly drawn) [Compound 53, (6aS,6bR,7S,8aS,8bS,11aR,12aS,12bS)-6b-Fluoro-7-hydroxy-8b-(2-hydroxyacetyl)-6a,8a-dimethyl-10-(2-(((2-oxotetrahydrofuran-3-yl)thio)methyl)pyrimidin-5-yl)-1,2,6a,6b,7,8,8a,8b,11a,12,12a, 12b-dodecahydro-4H-naphtho[2',1':4,5]indeno[1,2-d][1,3]dioxol-4-one], in data set [2], the EC50 is over 50000 nM and the “Target selectivity PR/GR” value amounted to 6017. For the same compound, in data set [3], the EC50 stood at 8.31 nM and the negative-log EC50 (pEC50) was 8.08. In data set [4], the EC50 was over 50000 nM and the “Target selectivity MR/GR” value is reported as 6017.
In the case of `C[C@]12C=CC(=O)C=C1CC[C@H]1[C@@H]3C[C@H]4OC(c5ccc(CNC6CCOC6=O)cc5)O[C@@]4(C(=O)CO)[C@@]3(C)C[C@H](O)[C@@]12F` (stereo partly drawn) [Compound 18, (6aS,6bR,7S,8aS,8bS,11aR,12aS,12bS)-6b-Fluoro-7-hydroxy-8b-(2-hydroxyacetyl)-6a,8a-dimethyl-10-(4-(((2-oxotetrahydrofuran-3-yl)amino)methyl)phenyl)-1,2,6a,6b,7,8,8a,8b,11a,12,12a,12b-dodecahydro-4H-naphtho[2',1':4,5]indeno[1,2-d][1,3]dioxol-4-one], in data set [2], the EC50 is over 50000 nM and the “Target selectivity PR/GR” value was > 3.1×10^4. In addition, in data set [3], the EC50 amounted to 1.62 nM and the pEC50 was 8.79. Further, in data set [4], the EC50 was over 50000 nM and the “Target selectivity MR/GR” value was > 3.1×10^4.
Take `C[C@]12C=CC(=O)C=C1[C@@H](F)C[C@H]1[C@@H]3C[C@H]4OC(c5ccc(CNC6CCOC6=O)cc5)O[C@@]4(C(=O)CO)[C@@]3(C)C[C@H](O)[C@@]12F` (stereo partly drawn) [Compound 9, (2S,6aS,6bR,7S,8aS,8bS,11aR,12aS,12bS)-2,6b-Difluoro-7-hydroxy-8b-(2-hydroxyacetyl)-6a,8a-dimethyl-10-(4-(((2-oxotetrahydrofuran-3-yl)amino)methyl)phenyl)-1,2,6a,6b,7,8,8a,8b,11a,12,12 a,12b-dodecahydro-4H-naphtho[2',1':4,5]indeno[1,2-d][1,3]dioxol-4-one]: in data set [2], the EC50 was over 50000 nM and the “Target selectivity PR/GR” value is recorded as > 1.5×10^4. For the same compound, in data set [3], the EC50 came to 3.27 nM and the pEC50 is 8.49. Moreover, in data set [4], the EC50 is over 50000 nM and the “Target selectivity MR/GR” value is given as > 1.5×10^4.
